# Laboratory results published in patent US9440941B2, “Substituted chroman-6-yloxy-cycloalkanes and their use as pharmaceuticals” (SANOFI, priority 2013, dated 2016).
# Counter-ions that a name gives are not always drawn.
# Target: T1, human NCX1 (Homo sapiens, UniProt P32418)
# T1 construct: expressed in transfected cells
# Experiment: Inhibition of Ca2+ influx into cells (NCX1 reverse mode), FLIPR Fluo-4 assay
# Assay type: cell-based
# Details: inhibition of NCX1 in reverse mode (Ca2+ influx into cells); read-out: NCX1rv IC50
# Text: The sodium/calcium exchanger NCX1 can transport calcium ions and sodium ions through the cell membrane. The transport is an exchange of Ca^2+ and Na^+ in two directions depending on membrane potential and ion gradients. At the first direction, named “forward mode” or “calcium export mode”, Ca^2+ is transported out of the cell and Na^+ is transported into the cell. At the other direction, named “reverse mode” or “calcium import mode”, the transport directions are vice versa. The effect of the compounds of the invention on NCX1 was determined in CHO cells stably expressing human NCX1 (gene symbol SLC8A1; cf. WO 2009/115238). The assay is based on the monitoring of intracellular Ca^2+ concentrations using a calcium-sensitive fluorescence dye which is detected by means of a FLIPR device (Fluorimetric Imaging Plate Reader, Molecular Devices).
# Assay Technology—Reverse Mode
# The assay is based on the monitoring of intracellular Ca^2+ concentrations using the calcium-sensitive dye Fluo-4. CHO cells expressing NCX1 were loaded with the dye by means of the acetoxymethyl ester Fluo-4 AM (Invitrogen, F14202), which is cleaved intracellularly by esterase activity to yield the charged species of free Fluo-4. After an preincubation period with the test compound, Gramicidine (Sigma, G5002) was added. Gramicidine is an ionophor for Na^+ ions mediating an increase of intracellular Na^+ ions. Consequently, intracellular Na^+ ions are exchanged against extracellular Ca^2+ ions (Ca^2+ influx, reverse mode). The intracellular elevation of Ca^2+ ions was detected by measuring the fluorescence of Fluo-4 at a wavelength of 520 nm by a FLIPR device.
# Briefly, for the reverse mode transport assay 18000 cells per well were seeded into a 96 well microplate (Corning COSTAR 3904) and incubated overnight in culture medium (1× Nut Mix F12 (Ham) (Gibco, 21765-029); 10% (v/v) fetal calf serum (PAA Gold, A15-649); 450 μg/ml Geneticin (Gibco, 10131-027)). A total volume of 100 μl medium per well was used. For the preparation of the FLIPR assay, the culture medium was removed from the plates and 100 μl of dye solution (2 μM Fluo-4 AM; 0.02% (v/v) Pluronic F-127 (20%, Invitrogen, P3000MP); 0.1% (v/v) bovine albumin solution (30% (v/v), Sigma, A9205) in assay buffer (133.8 mM NaCl (Sigma, S5886); 4.7 mM KCl (Sigma, P3911); 1.25 mM MgCl2 (Merck, 1.05833.0250); 3.5 mM CaCl2 (Merck, 1.02083.0250); 5 mM glucose (Sigma, G7021); 10 mM Hepes (Sigma, H4034); 0.01% (v/v) Pluronic F-127 (5%, Sigma, P2443); 2.5 mM Probenecid (Maybridge, SB00915EB); pH 7.4)) were added into each well. The plates were incubated in the dark at room temperature for 80 min. After the incubation period, the dye solution was removed and the wells were washed with 100 μl of assay buffer. Then 80 μl of a solution of the test compound in assay buffer in different concentrations were added into the wells. The plates were incubated at 16° C. for 45 min. Meanwhile a 60 μM solution of Gramicidine in assay buffer (4° C.) was prepared and stored in the wells of a 96 well microplate (96 well microplate, polypropylene, U-shape (Greiner Bio-One, 650201)) at 4° C. until measurement was started. The fluorescence monitoring was performed at 240 measuring points with measurement intervals of 2 sec. After the fifth measuring point, 40 μl of the Gramicidine solution were added to each well of the assay plates to give a final Gramicidine concentration of 20 μM. For the determination of the IC50 values the minimal fluorescence value was subtracted from the maximal fluorescence value for all measuring points. The calculation of the IC50 values via the percentage inhibitions of Ca^2+ influx into cells (reverse mode) effected by the test compound was performed in Biost@t Speed 2.0.
row,SMILES,IC50 [nM]
1,Fc1ccccc1C1CCc2cc(O[C@H]3CC[C@H](NCC4CCOC4)CC3)ccc2O1 (relative stereo) [compound 178],1600
2,O=C(CN1CCCC1)N[C@H]1CC[C@H](Oc2ccc3c(c2)CCC(c2ccccc2)O3)CC1 (relative stereo) [compound 182],300
3,Cc1n[nH]c(C)c1CCC(=O)N[C@H]1CC[C@H](Oc2ccc3c(c2)CCC(c2ccccc2F)O3)CC1 (relative stereo) [compound 234],100
4,Cc1n[nH]c(C)c1CC(=O)N[C@H]1CC[C@H](Oc2ccc3c(c2)CCC(c2ccccc2F)O3)CC1 (relative stereo) [compound 235],1500
5,O=C(Cn1cccn1)N[C@H]1CC[C@H](Oc2ccc3c(c2)CCC(c2ccccc2F)O3)CC1 (relative stereo) [compound 236],100
6,O=C(CCn1cncn1)N[C@H]1CC[C@H](Oc2ccc3c(c2)CCC(c2ccccc2F)O3)CC1 (relative stereo) [compound 237],200
7,CCC(C)(O)C(=O)N[C@H]1CC[C@H](Oc2ccc3c(c2)CCC(c2ccccc2F)O3)CC1 (relative stereo) [compound 238],100
8,O=C(N[C@H]1CC[C@H](Oc2ccc3c(c2)CCC(c2ccccc2F)O3)CC1)C1CC1 (relative stereo) [compound 239],100
9,O=C(CC(F)(F)F)N[C@H]1CC[C@H](Oc2ccc3c(c2)CCC(c2ccccc2F)O3)CC1 (relative stereo) [compound 240],100
10,CSCC(=O)N[C@H]1CC[C@H](Oc2ccc3c(c2)CCC(c2ccccc2F)O3)CC1 (relative stereo) [compound 241],40
11,COCCC(=O)N[C@H]1CC[C@H](Oc2ccc3c(c2)CCC(c2ccccc2F)O3)CC1 (relative stereo) [compound 243],700
12,Cc1nc(CC(=O)N[C@H]2CC[C@H](Oc3ccc4c(c3)CCC(c3ccccc3F)O4)CC2)c(C)s1 (relative stereo) [compound 245],300
13,O=C(N[C@H]1CC[C@H](Oc2ccc3c(c2)CCC(c2ccccc2F)O3)CC1)c1ccncc1F (relative stereo) [compound 246],100
14,Cc1nc(C(=O)N[C@H]2CC[C@H](Oc3ccc4c(c3)CCC(c3ccccc3F)O4)CC2)cs1 (relative stereo) [compound 247],300
15,Cc1noc(CCC(=O)N[C@H]2CC[C@H](Oc3ccc4c(c3)CCC(c3ccccc3F)O4)CC2)n1 (relative stereo) [compound 248],200
16,Cc1cc(CC(=O)N[C@H]2CC[C@H](Oc3ccc4c(c3)CCC(c3ccccc3F)O4)CC2)on1 (relative stereo) [compound 249],1100
17,Cc1ccn(CC(=O)N[C@H]2CC[C@H](Oc3ccc4c(c3)CCC(c3ccccc3F)O4)CC2)n1 (relative stereo) [compound 250],800

# Other lines, results leading:
row,IC50 [nM],SMILES
1,4000,"Cc1cccc(C)c1C1CCc2cc(O[C@H]3CC[C@H](N)CC3)ccc2O1 (relative stereo) [compound 168, hydrochloride]"
2,8300,Cc1cccc(C)c1C1CCc2cc(O[C@H]3CC[C@H](NCC4CCOC4)CC3)ccc2O1 (relative stereo) [compound 171]
3,7100,Cc1cccc(C)c1C1CCc2cc(O[C@H]3CC[C@H](NC(=O)CCn4cccn4)CC3)ccc2O1 (relative stereo) [compound 172]
4,1300,"N[C@H]1CC[C@H](Oc2ccc3c(c2)CCC(c2ccccc2F)O3)CC1 (relative stereo) [compound 176, hydrochloride]"
5,600,"Cc1ccccc1C1CCc2cc(O[C@H]3CC[C@@H](CNC(=O)CN)CC3)ccc2O1 (relative stereo) [compound 185, hydrochloride]"
6,400,Cc1ccc(F)cc1C1CCc2cc(O[C@H]3CC[C@H](NC(=O)CN)CC3)ccc2O1 (relative stereo) [compound 186]
7,500,Cc1noc(C)c1C(=O)N[C@H]1CC[C@H](Oc2ccc3c(c2)CCC(c2ccccc2F)O3)CC1 (relative stereo) [compound 242]
